Results published in PubChem BioAssay AID720643 (The Scripps Research Institute Molecular Screening Center, 2013).
Active and inactive are the calls of the source.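 Rule for the calls: active = EC50 of 10 µM or lower; inactive = EC50 above 10 µM.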

Biological target: 5-hydroxytryptamine receptor 2A (Mus musculus) (UniProt P35363)
Assay: agonist EC50 at mouse 5-HT2A receptor – cell-based, luminescence, CHO-K1, powder samples, dose response, late-stage follow-up (AID 720643)
Conditions: CHO-K1 mHTR2A beta-arrestin PathHunter luminescence

Sequence of 5-hydroxytryptamine receptor 2A (Mus musculus) (P35363 whole entry, looked up): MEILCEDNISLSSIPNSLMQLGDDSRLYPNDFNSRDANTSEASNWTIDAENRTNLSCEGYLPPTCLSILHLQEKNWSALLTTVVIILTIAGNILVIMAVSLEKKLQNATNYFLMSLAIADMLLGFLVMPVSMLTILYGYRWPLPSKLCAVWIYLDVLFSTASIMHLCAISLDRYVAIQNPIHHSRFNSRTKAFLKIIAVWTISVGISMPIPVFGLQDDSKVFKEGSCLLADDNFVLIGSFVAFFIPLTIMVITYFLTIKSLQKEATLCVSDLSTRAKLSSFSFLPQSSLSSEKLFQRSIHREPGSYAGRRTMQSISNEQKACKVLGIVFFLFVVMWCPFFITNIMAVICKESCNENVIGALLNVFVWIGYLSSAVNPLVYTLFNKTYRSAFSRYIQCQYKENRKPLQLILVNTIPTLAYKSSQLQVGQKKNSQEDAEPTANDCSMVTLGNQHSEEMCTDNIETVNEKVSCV

| SMILES | EC50 |
| --- | --- |
| CCOc1cc(CN2CCN(C(=O)c3ccco3)CC2)ccc1OC | > 76.1 µM (inactive) |
| COC(=O)C1=C(Cn2cnc3ccccc32)NC(=O)NC1c1cc(C)ccc1C (stereo not drawn) | 3.47 µM |
| COc1cc(Br)cc(CN2CCN(c3ncccn3)CC2)c1O | > 76.1 µM (inactive) |
| CC(=O)N1CCc2cc(C(=O)CN3CCN(c4cccc(Cl)c4)CC3)ccc21 | > 76.1 µM (inactive) |
| Clc1ccccc1CN1CCN(c2ccccc2)CC1 | > 76.1 µM (inactive) |
| CCOc1ccc(NC(=O)CCN2CCN(c3ccccc3F)CC2)cc1 | > 76.1 µM (inactive) |
| NC1CCc2cc(O)c(O)cc2C1 (stereo not drawn) | > 76.1 µM (inactive) |
| Oc1ccc(CN2CCN(c3ncccn3)CC2)cc1 | > 76.1 µM (inactive) |
| Clc1ccccc1CN1CCN(c2ncccn2)CC1 | > 76.1 µM (inactive) |
| c1ccc(COc2ccc(CN3CCN(c4ccccn4)CC3)cc2)cc1 | > 76.1 µM (inactive) |
| Cc1ccc(CN2CCN(c3ncccn3)CC2)c(C)c1 | > 76.1 µM (inactive) |
| CCc1ccc(CN2CCN(C(=O)c3ccco3)CC2)cc1 | > 76.1 µM (inactive) |
| Cc1ccc(CN2CCN(c3ncccn3)CC2)o1 | > 76.1 µM (inactive) |
| Cc1cccc(CN2CCN(c3ccccn3)CC2)c1 | > 76.1 µM (inactive) |
| NC[C@@H]1O[C@H](C23CC4CC(CC(C4)C2)C3)Cc2c1ccc(O)c2O | > 76.1 µM (inactive) |
| O=C(c1ccco1)N1CCN(Cc2ccc(Cl)cc2)CC1 | > 76.1 µM (inactive) |
| c1ccc(CN2CCN(c3ncccn3)CC2)cc1 | > 76.1 µM (inactive) |
| Fc1cccc(CN2CCN(c3ncccn3)CC2)c1 | > 76.1 µM (inactive) |
| Brc1cccc(CN2CCN(c3ncccn3)CC2)c1 | > 76.1 µM (inactive) |
| Fc1ccccc1CN1CCN(c2ncccn2)CC1 | > 76.1 µM (inactive) |
| COc1ccc(CC2(CO)CCN(Cc3cc4ccccc4o3)CC2)cc1 | > 76.1 µM (inactive) |
| CC(C)C[C@H]1C(=O)N2CCC[C@H]2[C@]2(O)O[C@](NC(=O)[C@@H]3C=C4c5cccc6[nH]c(Br)c(c56)CC4N(C)C3)(C(C)C)C(=O)N12 (stereo partly drawn) | > 76.1 µM (inactive) |
| Cc1ccsc1CN1CCN(c2ccccn2)CC1 | > 76.1 µM (inactive) |
| Cc1cccc(CN2CCN(c3ncccn3)CC2)c1 | > 76.1 µM (inactive) |
| O=C(CN1CCN(c2ccccn2)CC1)Nc1ccc(Oc2ccccc2)cc1 | > 76.1 µM (inactive) |
| CC(=O)N1CCC(N2CCN(c3ccccc3F)CC2)CC1 | > 76.1 µM (inactive) |
| Fc1ccc(F)c(CN2CCN(c3ncccn3)CC2)c1 | > 76.1 µM (inactive) |

| SMILES | EC50 |
| --- | --- |
| COc1ccc(CN2CCN(c3ncccn3)CC2)c(C)c1C | > 76.1 µM (inactive) |
| Clc1ccc(CN2CCN(c3ncccn3)CC2)cc1 | > 76.1 µM (inactive) |
| CCn1c(=O)cc(SCC(=O)NCCCN2CCN(c3ccccc3F)CC2)c2ccccc21 | > 76.1 µM (inactive) |
| COc1ccc(CN2CCN(c3ccccn3)CC2)c(OC)c1 | > 76.1 µM (inactive) |
| Clc1ccc(CN2CCN(c3ncccn3)CC2)cc1Cl | > 76.1 µM (inactive) |
| CCCN1CCC[C@H](c2cccc(O)c2)C1 | > 76.1 µM (inactive) |
| COc1cc(CN2CCN(c3ncccn3)CC2)cc(OC)c1 | > 76.1 µM (inactive) |
| CN(c1ccc(C(=O)N2CCN(Cc3ccccc3)CC2)cc1)S(=O)(=O)c1ccc(Cl)cc1 | > 76.1 µM (inactive) |
| COc1ccccc1C(=O)NCCN1CCN(c2ccccc2)CC1 | > 76.1 µM (inactive) |
| CCOC(=O)C1CCN(Cc2cccc(Oc3ccc(Cl)cc3)c2)CC1 | > 76.1 µM (inactive) |
| CCOC(=O)N1CCN(Cc2ccc(OCC(O)CN3CCCCC3)cc2)CC1 (stereo not drawn) | > 76.1 µM (inactive) |
| CC1CC(C)CN(CCOc2cccc(Cl)c2Cl)C1 (stereo not drawn) | > 76.1 µM (inactive) |
| OCC1(Cc2cccc(C(F)(F)F)c2)CCN(Cc2cc3ccccc3o2)CC1 | > 76.1 µM (inactive) |
| Cc1ccc(CN2CCN(c3ccccn3)CC2)s1 | > 76.1 µM (inactive) |
| COc1cccc(-n2cc(CNCc3cn(C)nc3-c3ccccc3F)cn2)c1 | > 76.1 µM (inactive) |
| COc1ccc(CN2CCN(c3ncccn3)CC2)c(OC)c1 | > 76.1 µM (inactive) |
| Cn1cc(C(F)(F)F)nc1-c1ccc(OCC(O)CNCCOc2ccc(O)c(C(N)=O)c2)cc1 (stereo not drawn) | > 76.1 µM (inactive) |
| COc1cccc(OCC(O)CN2CCN(c3ccccn3)CC2)c1 (stereo not drawn) | > 76.1 µM (inactive) |
| OC(COc1ccc2cc(Br)ccc2c1)CN1CCN(c2ccccn2)CC1 (stereo not drawn) | > 76.1 µM (inactive) |
| CC(COc1ccccc1)N1CCC(CO)(Cc2ccccc2)CC1 (stereo not drawn) | > 76.1 µM (inactive) |
| Brc1ccc(CN2CCN(c3ccccn3)CC2)s1 | > 76.1 µM (inactive) |
| CC1(C)C(C=C(Cl)Cl)C1C(=O)N1CCN(Cc2ccccc2)CC1 (stereo not drawn) | > 76.1 µM (inactive) |
| COc1ccc(CN2CCN(C(=O)c3ccco3)CC2)cc1OCc1ccccc1 | > 76.1 µM (inactive) |
| c1ccc(N2CCN(Cc3ccsc3)CC2)nc1 | > 76.1 µM (inactive) |
| C=CCN1CCc2nc(N)sc2CC1 | > 76.1 µM (inactive) |
| CCCN(CCC)C1CCc2cccc(O)c2C1 (stereo not drawn) | > 76.1 µM (inactive) |
